Test [1] relates to recombinant human CFTR carrying the premature stop codon (PTC) mutation G542X. The experiment in a line: CFTR-PTC mutant translation readthrough, Nanoluc tagged CFTR luminescence (G542X cell line). The conditions noted are these: in combination with G418, G542X cell line; for CFTR G542X ACTIVITY Fold 10 μM G-418: fold over 10 μM G-418; for pEC50: 16HBE cells. Type of test: cell-based. In outline: (§1)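 Readthrough is the 48 h compound-induced luminescence increase scaled to that of maximal G418 (125-250 μM). Compounds run from 50 μM final in 2-fold steps, ±10 μM G418, on 16HBE lines carrying Nanoluc-tagged CFTR G542X (extracellular loop 4 tag) or R1162X (C-terminal tag), with 3 μM VX-809 present.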

In test [2] the test system is recombinant human CFTR carrying the premature stop codon (PTC) mutation R1162X. Put plainly: CFTR-PTC mutant translation readthrough, Nanoluc tagged CFTR luminescence (R1162X cell line). Type of test: cell-based. The conditions noted are these: for CFTR R1162X ACTIVITY Fold 10 μM G-418: fold over 10 μM G-418, in combination with G418; for pEC50: in combination with G418, 16HBE cells, read-out: CFTR R1162X ACTIVITY EC50. In a few lines:
as §1

pEC50: −log10 of the molar value.

The pEC50 is the negative decadic logarithm of the EC50, by convention in mol/L. Regarding `Cc1cccc(C)c1COc1ccc(-n2ccc(CO)n2)nc1` [[1-[5-[(2,6-dimethylphenyl)methoxy]-2-pyridyl]pyrazol-3-yl]methanol], in test [1], the “CFTR G542X ACTIVITY Fold 10 μM G-418” value is on record as “A′ (A′ = ≥10X)” and the negative logarithm of the EC50 (pEC50) was 5.00 to 6.00. In test [2], the “CFTR R1162X ACTIVITY Fold 10 μM G-418” value is “A′ (A′ = ≥10X)” and the pEC50 is 5.00 to 6.00.
Take `OCc1cnn(-c2ncc(OCc3c(Cl)cccc3Cl)cn2)n1` [[2-[5-[(2,6-dichlorophenyl)methoxy]pyrimidin-2-yl]triazol-4-yl]methanol]: in test [1], the “CFTR G542X ACTIVITY Fold 10 μM G-418” value was “A′ (A′ = ≥10X)” and the negative-log EC50 (pEC50) was 5.00 to 6.00. Besides, in test [2], the “CFTR R1162X ACTIVITY Fold 10 μM G-418” value is “A′ (A′ = ≥10X)” and the pEC50 is 5.00 to 6.00.
Take `OCc1cc(-c2ccc(OCc3c(Cl)cccc3Cl)cc2)no1` [[3-[4-[(2,6-dichlorophenyl)methoxy]phenyl]isoxazol-5-yl]methanol]: in test [1], the “CFTR G542X ACTIVITY Fold 10 μM G-418” value is listed as “A′ (A′ = ≥10X)” and the negative logarithm of the EC50 (pEC50) is 5.00 to 6.00. Besides, in test [2], the “CFTR R1162X ACTIVITY Fold 10 μM G-418” value was “A′ (A′ = ≥10X)” and the negative-log EC50 (pEC50) was 5.00 to 6.00.
Consider `OCc1nc(-c2ccc(OCc3c(Cl)cccc3Cl)cn2)no1` [[3-[5-[(2,6-dichlorophenyl)methoxy]-2-pyridyl]-1,2,4-oxadiazol-5-yl]methanol], for which, in test [1], the “CFTR G542X ACTIVITY Fold 10 μM G-418” value is recorded as “A′ (A′ = ≥10X)” and the pEC50 was 5.00 to 6.00. Besides, in test [2], the “CFTR R1162X ACTIVITY Fold 10 μM G-418” value is listed as “A′ (A′ = ≥10X)” and the pEC50 is 5.00 to 6.00.
As to `OCc1cc(-c2ccc(OCc3c(Cl)cccc3Cl)cn2)no1` [[3-[5-[(2,6-dichlorophenyl)methoxy]-2-pyridyl]isoxazol-5-yl]methanol], in test [1], the “CFTR G542X ACTIVITY Fold 10 μM G-418” value was “A′ (A′ = ≥10X)” and the negative logarithm of the EC50 (pEC50) is greater than 6.00. For the same molecule, in test [2], the “CFTR R1162X ACTIVITY Fold 10 μM G-418” value is on record as “A′ (A′ = ≥10X)” and the negative logarithm of the EC50 (pEC50) is 5.00 to 6.00.
With `OCc1cc(-c2ncc(OCc3c(Cl)cccc3Cl)cn2)no1` [[3-[5-[(2,6-dichlorophenyl)methoxy]pyrimidin-2-yl]isoxazol-5-yl]methanol], in test [1], the “CFTR G542X ACTIVITY Fold 10 μM G-418” value is reported as “A′ (A′ = ≥10X)” and the pEC50 is greater than 6.00. In test [2], the “CFTR R1162X ACTIVITY Fold 10 μM G-418” value is “A′ (A′ = ≥10X)” and the pEC50 is 5.00 to 6.00.
Consider `OCC1CN(c2ccc(OCc3c(Cl)cccc3Cl)cc2)CCO1` (centres unmarked) [[4-[4-[(2,6-dichlorophenyl)methoxy]phenyl]morpholin-2-yl]methanol], for which, in test [1], the “CFTR G542X ACTIVITY Fold 10 μM G-418” value is listed as “A′ (A′ = ≥10X)” and the negative-log EC50 (pEC50) is 5.00 to 6.00. In test [2], the “CFTR R1162X ACTIVITY Fold 10 μM G-418” value is “A′ (A′ = ≥10X)” and the negative logarithm of the EC50 (pEC50) was 5.00 to 6.00.
As for `OCc1nc(-c2ccc(OCc3c(Cl)cccc3Cl)cc2)co1` [[4-[4-[(2,6-dichlorophenyl)methoxy]phenyl]oxazol-2-yl]methanol], in test [1], the “CFTR G542X ACTIVITY Fold 10 μM G-418” value is listed as “A′ (A′ = ≥10X)” and the negative-log EC50 (pEC50) is 5.00 to 6.00. Moreover, in test [2], the “CFTR R1162X ACTIVITY Fold 10 μM G-418” value is “A′ (A′ = ≥10X)” and the pEC50 is 5.00 to 6.00.
Regarding `CCc1cccc(C(F)(F)F)c1COc1ccc(N2CCOC(CO)C2)cc1` (centres unmarked) [[4-[4-[[2-ethyl-6-(trifluoromethyl)phenyl]methoxy]phenyl]morpholin-2-yl]methanol], in test [1], the “CFTR G542X ACTIVITY Fold 10 μM G-418” value is “A′ (A′ = ≥10X)” and the pEC50 is greater than 6.00. Also, in test [2], the “CFTR R1162X ACTIVITY Fold 10 μM G-418” value was “A′ (A′ = ≥10X)” and the pEC50 was greater than 6.00.
In the case of `OCC1CN(c2ccc(OCc3c(Cl)cccc3Cl)cn2)CCO1` (centres unmarked) [[4-[5-[(2,6-dichlorophenyl)methoxy]-2-pyridyl]morpholin-2-yl]methanol], in test [1], the “CFTR G542X ACTIVITY Fold 10 μM G-418” value is recorded as “A′ (A′ = ≥10X)” and the pEC50 was 5.00 to 6.00. For the same molecule, in test [2], the “CFTR R1162X ACTIVITY Fold 10 μM G-418” value is “A′ (A′ = ≥10X)” and the pEC50 is 5.00 to 6.00.
Take `NCC1CN(c2ncc(OCc3c(Cl)cccc3Cl)cn2)CCO1` (centres unmarked) [[4-[5-[(2,6-dichlorophenyl)methoxy]pyrimidin-2-yl]morpholin-2-yl]methanamine]: in test [1], the “CFTR G542X ACTIVITY Fold 10 μM G-418” value was “A′ (A′ = ≥10X)” and the pEC50 is greater than 6.00. Besides, in test [2], the “CFTR R1162X ACTIVITY Fold 10 μM G-418” value is “A′ (A′ = ≥10X)” and the negative-log EC50 (pEC50) was 5.00 to 6.00.
In the case of `OCC1CN(c2ncc(OCc3c(Cl)cccc3Cl)cn2)CCO1` (centres unmarked) [[4-[5-[(2,6-dichlorophenyl)methoxy]pyrimidin-2-yl]morpholin-2-yl]methanol], in test [1], the “CFTR G542X ACTIVITY Fold 10 μM G-418” value is reported as “A′ (A′ = ≥10X)” and the pEC50 was greater than 6.00. For the same molecule, in test [2], the “CFTR R1162X ACTIVITY Fold 10 μM G-418” value is “A′ (A′ = ≥10X)” and the pEC50 is 5.00 to 6.00.
For `NC(=O)NCC1CN(c2ncc(OCc3c(Cl)cccc3Cl)cn2)CCO1` (centres unmarked) [[4-[5-[(2,6-dichlorophenyl)methoxy]pyrimidin-2-yl]morpholin-2-yl]methylurea], in test [1], the “CFTR G542X ACTIVITY Fold 10 μM G-418” value was “A′ (A′ = ≥10X)” and the pEC50 was 5.00 to 6.00. Further, in test [2], the “CFTR R1162X ACTIVITY Fold 10 μM G-418” value was “B′ (B′ = ≥5X to <10X)” and the negative logarithm of the EC50 (pEC50) was 5.00 to 6.00.
For the molecule `OCc1nc(-c2ncc(OCc3c(Cl)cccc3Cl)cn2)co1` [[4-[5-[(2,6-dichlorophenyl)methoxy]pyrimidin-2-yl]oxazol-2-yl]methanol], in test [1], the “CFTR G542X ACTIVITY Fold 10 μM G-418” value is on record as “A′ (A′ = ≥10X)” and the negative logarithm of the EC50 (pEC50) is 5.00 to 6.00. In addition, in test [2], the “CFTR R1162X ACTIVITY Fold 10 μM G-418” value was “A′ (A′ = ≥10X)” and the pEC50 is 5.00 to 6.00.
With `OCC1CN(c2ncc(OCc3c(Cl)cccc3Cl)cn2)CCN1` (centres unmarked) [[4-[5-[(2,6-dichlorophenyl)methoxy]pyrimidin-2-yl]piperazin-2-yl]methanol], in test [1], the “CFTR G542X ACTIVITY Fold 10 μM G-418” value is “A′ (A′ = ≥10X)” and the pEC50 was 5.00 to 6.00. For the same molecule, in test [2], the “CFTR R1162X ACTIVITY Fold 10 μM G-418” value is “A′ (A′ = ≥10X)” and the pEC50 was 5.00 to 6.00.
For the molecule `Cc1cccc(C(F)(F)F)c1COc1cnc(N2CCS(=O)(=O)C(CO)C2)nc1` (centres unmarked) [[4-[5-[[2-methyl-6-(trifluoromethyl)phenyl]methoxy]pyrimidin], in test [1], the “CFTR G542X ACTIVITY Fold 10 μM G-418” value is given as “A′ (A′ = ≥10X)” and the pEC50 is 5.00 to 6.00. In test [2], the “CFTR R1162X ACTIVITY Fold 10 μM G-418” value was “A′ (A′ = ≥10X)” and the pEC50 is 5.00 to 6.00.
`OCc1nnc(-c2ccc(OCc3c(Cl)cccc3Cl)cc2)o1` [[5-[4-[(2,6-dichlorophenyl)methoxy]phenyl]-1,3,4-oxadiazol-2-yl]methanol]: in test [1], the “CFTR G542X ACTIVITY Fold 10 μM G-418” value is reported as “A′ (A′ = ≥10X)” and the negative logarithm of the EC50 (pEC50) was greater than 6.00. Besides, in test [2], the “CFTR R1162X ACTIVITY Fold 10 μM G-418” value is on record as “A′ (A′ = ≥10X)” and the negative-log EC50 (pEC50) is greater than 6.00.
With `OCc1n[nH]c(-c2ccc(OCc3c(Cl)cccc3Cl)cn2)n1` [[5-[5-[(2,6-dichlorophenyl)methoxy]-2-pyridyl]-1H-1,2,4-triazol-3-yl]methanol], in test [1], the “CFTR G542X ACTIVITY Fold 10 μM G-418” value is listed as “B′ (B′ = ≥5X to <10X)” and the pEC50 was 5.00 to 6.00. Also, in test [2], the “CFTR R1162X ACTIVITY Fold 10 μM G-418” value is reported as “B′ (B′ = ≥5X to <10X)” and the pEC50 was 5.00 to 6.00.
As for `OC[C@H]1CN(c2ncc(OCc3c(Cl)cccc3Cl)cn2)CCO1` [[(2R)-4-[5-[(2,6-dichlorophenyl)methoxy]pyrimidin-2-yl]morpholin-2-yl]methanol], in test [1], the “CFTR G542X ACTIVITY Fold 10 μM G-418” value is on record as “A′ (A′ = ≥10X)” and the pEC50 was 5.00 to 6.00. Besides, in test [2], the “CFTR R1162X ACTIVITY Fold 10 μM G-418” value is reported as “A′ (A′ = ≥10X)” and the pEC50 is 5.00 to 6.00.
Regarding `OC[C@@H]1CN(c2ncc(OCc3c(Cl)cccc3Cl)cn2)CCO1` [[(2S)-4-[5-[(2,6-dichlorophenyl)methoxy]pyrimidin-2-yl]morpholin-2-yl]methanol], in test [1], the “CFTR G542X ACTIVITY Fold 10 μM G-418” value is “A′ (A′ = ≥10X)” and the pEC50 was greater than 6.00. Further, in test [2], the “CFTR R1162X ACTIVITY Fold 10 μM G-418” value is given as “A′ (A′ = ≥10X)” and the negative logarithm of the EC50 (pEC50) is greater than 6.00.

The record behind these values is US20250228865A1, “COMPOUNDS FOR ENHANCING READ THROUGH OF GENES CONTAINING PREMATURE TERMINATION CODONS AND METHODS FOR MAKING AND USING THE SAME” (Sanofi US Services Inc., priority 2022, published 2025).
